# The supplement of paper PMC9386025
# How the values were obtained:
# Test in all cases: drug sensitivity score (DSS) (DSS (dimensionless)); higher = more sensitive (stronger drug response)
# FIMM-PDC1 = patient-derived ovarian cancer cells; conditions: genetic perturbation: none (patient-derived cell culture)
# Method in brief: (§1)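 Drugs were pre-plated in 384-well plates at five concentrations covering a 10,000-fold range, and 1 000 – 1 500 cells per well were added from patient-derived cultures or from ovarian cancer cell lines whose shRNA had been induced with 100 ng/ml doxycycline for three days or longer. Incubation lasted three days at 37 °C under 5.0 % CO2. A PHERAstar FS then recorded CellTiter-Glo luminescence as the readout of viability. A drug sensitivity score, calculated as described before, summarised the dose-response curve of every drug.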
# FIMM-PDC4 = patient-derived ovarian cancer cells; conditions: genetic perturbation: none (patient-derived cell culture)
# Method in brief: as §1
# FIMM-PDC7 = patient-derived ovarian cancer cells; conditions: genetic perturbation: none (patient-derived cell culture)
# Method in brief: as §1
# FIMM-PDC6 = patient-derived ovarian cancer cells; conditions: genetic perturbation: none (patient-derived cell culture)
# Method in brief: as §1
# OVSAHO = system: OVSAHO
# Method in brief: as §1
# FIMM-PDC3 = patient-derived ovarian cancer cells; conditions: genetic perturbation: none (patient-derived cell culture)
# Method in brief: as §1
# JHOS2 = system: JHOS2
# Method in brief: as §1
# FIMM-PDC5 = patient-derived ovarian cancer cells; conditions: genetic perturbation: none (patient-derived cell culture)
# Method in brief: as §1
# Kuramochi = system: Kuramochi
# Method in brief: as §1
# [1] = genetic perturbation: DOX-induced PTK7 shRNA knockdown
# [2] = genetic perturbation: DOX-induced control shRNA
SMILES,drug sensitivity score (FIMM-PDC1),drug sensitivity score (FIMM-PDC4),drug sensitivity score (FIMM-PDC7),drug sensitivity score (FIMM-PDC6),drug sensitivity score (OVSAHO; [1]),drug sensitivity score (OVSAHO; [2]),drug sensitivity score (FIMM-PDC3),drug sensitivity score (JHOS2; [1]),drug sensitivity score (JHOS2; [2]),drug sensitivity score (FIMM-PDC5),drug sensitivity score (Kuramochi; [1]),drug sensitivity score (Kuramochi; [2])
CC(C)(C)C[C@@H]1N[C@@H](C(=O)N[C@H]2CC[C@H](O)CC2)[C@H](c2cccc(Cl)c2F)[C@]12C(=O)Nc1cc(Cl)ccc12,< 0,8.1,5,10.5,2.7,1.2,4.9,4.8,0.1,15.8,1.9,0.8
CC(C)(C)c1cc(NC(=O)Nc2ccc(Oc3ccnc4[nH]c(=O)cnc34)cc2F)n(-c2ccccc2)n1,3.9,0.7,0.3,0.4,3.9,9.1,4.2,1.8,8.3,0.3,2.15,9.4
CC(C)Oc1ccc(C(=O)N[C@H](CNC(=O)CN(C)C)Cc2ccc(-c3cn4cccc([C@H](C)O)c4n3)cc2)cc1Cl,12.7,6,4.2,0.2,7.7,9.5,11.9,8.9,6.4,14.9,15.1,2.5
CCc1cncnc1N1CCN(Cc2nc3ccc(C(F)(F)F)cc3[nH]2)CC1,1.9,3.2,4.3,8.9,1.2,2,0.5,0.1,0.7,2.9,2.3,0.8
CCn1c(-c2nonc2N)nc2c(C#CC(C)(C)O)ncc(OC[C@H]3CCCNC3)c21,7.3,7.2,11.5,5.7,< 0,4.8,1.5,< 0,0.5,8.3,0.9,< 0
CCn1cc(-c2ccnc3[nH]c(-c4cccc(CN(C)C)c4)cc23)c(-c2ccc(NC(=O)N(C)C)cc2)n1,2.25,2.9,0.2,< 0,0.4,< 0,2.8,< 0,0.4,4.1,< 0,< 0
CN(C)CC#Cc1ccc(OCCCc2sc(N3CCc4cccc(C(=O)Nc5nc6ccccc6s5)c4C3)nc2C(=O)O)c(F)c1,18.7,14.1,19.3,30.1,23.3,2.6,16.8,6.3,0.5,31.9,4.55,9.9
CN1CCN(C2CCC(n3cc(-c4ccc(Oc5ccccc5)cc4)c4c(N)ncnc43)CC2)CC1 (stereo unspecified),5.85,18.6,7,14.7,18.9,10.8,14.6,9.9,11.5,18.4,16.8,12
CNC(=O)c1ccccc1Nc1nc(Nc2ccc3c(c2OC)CCC[C@H](N2CCN(CCO)CC2)C3)ncc1Cl,7.5,9.6,5.5,5.3,12.4,7.5,6.9,7.1,5.6,10.2,7.7,6.3
CNc1ncc2cc(-c3cc(NC(=O)NCCC(C)(C)C)c(F)cc3C)c(C)nc2n1,1.85,11.9,6.2,14.3,12.2,9.2,7.4,7.6,13.6,18.2,11.6,6.2
CO[C@@H](C)Cn1c(=O)n(C)c2cnc3ccc(-c4cncc(C(C)(C)O)c4)cc3c21,6.85,12,11.6,12.6,11.3,8,6.9,7.2,8.5,16.8,8.4,8.4
COc1ccc2[nH]cc(/C=C3\C(=O)Nc4ccc(NC(=O)CCN5CCCCC5)cc43)c2c1,6.15,9.7,6.7,5.8,7.4,7.5,11,7.8,8,14.3,7.75,5.2
C[C@@H](Oc1cc(-n2cnc3ccc(CN4CCN(C)CC4)cc32)sc1C(N)=O)c1ccccc1C(F)(F)F,9.8,12.1,8.5,1.6,16.7,8.4,12,25,7.5,24.1,12.6,6.3
C[C@@]1(C(=O)Nc2ccc(F)nc2)CCCN1c1nc(Nc2cc(C3CC3)n[nH]2)c2cccn2n1,13.8,11.5,16.6,4.1,7.2,8.9,10.8,6,4.4,14.1,5.25,5
Cc1c(-c2ccc(N3CCc4cccc(C(=O)Nc5nc6ccccc6s5)c4C3)nc2C(=O)O)cnn1CC12CC3CC(CC(C3)C1)C2,7.4,1.2,7.6,24.8,19.8,< 0,9.6,2.4,< 0,13.9,1.25,3.3
Cc1nc(Nc2n[nH]c3c2CN(C(=O)N[C@H](CN(C)C)c2ccccc2)C3(C)C)c2sccc2n1,9.6,16.6,11.8,14.8,11.1,15.3,14.3,16.6,13.6,20.8,12.3,8.6
Cc1nn(C)c(COc2ccc(N3CCN(S(=O)(=O)N(C)C)CC3)cc2)c1-c1cccc2c(CCCOc3cccc4ccccc34)c(C(=O)O)n(CCN3CCOCC3)c12,5.7,7.2,6.5,4.6,10.1,4.9,8.8,7.3,3.4,4.9,6.25,5.8

SMILES,drug sensitivity score (FIMM-PDC1),drug sensitivity score (FIMM-PDC4),drug sensitivity score (FIMM-PDC7),drug sensitivity score (FIMM-PDC6),drug sensitivity score (OVSAHO; [1]),drug sensitivity score (OVSAHO; [2]),drug sensitivity score (FIMM-PDC3),drug sensitivity score (JHOS2; [1]),drug sensitivity score (JHOS2; [2]),drug sensitivity score (FIMM-PDC5),drug sensitivity score (Kuramochi; [1]),drug sensitivity score (Kuramochi; [2])
Cn1cc(C2=Nc3cc(NC(=O)C(N)C4CCCCC4)cc4c3C2=CNNC4=O)cn1 (stereo unspecified),12.8,6.2,6.8,6.4,9.2,5.1,16.4,4.7,4.9,10.7,7.35,3.5
O=C(NOC[C@H](O)CO)c1ccc(F)c(F)c1Nc1ccc(I)cc1F,< 0,9.4,3.1,3.9,4.6,4.2,3,0.6,6.2,7.8,5.9,4
O=C(Nc1ccc2[nH]nc(-c3ccncc3)c2c1)[C@@H]1CCN(CC(=O)N2CCN(c3ccc(-c4ncccn4)cc3)CC2)C1,0.35,18.4,10.2,16.7,13.4,8.5,7.4,4.1,12.8,22,12.6,8
COc1ccc(C[C@H](NC(=O)[C@H](C)NC(=O)CN2CCOCC2)C(=O)N[C@@H](Cc2ccccc2)C(=O)C2(C)CO2)cc1 (stereo in doubt) [ONX-0914],19.9,17.6,20.3,23.8,17.6,12.3,22.7,18.3,15.5,17.4,14.6,16.4
CC/C(=C(\c1ccc(O)cc1)c1ccc(OCCN(C)C)cc1)c1ccccc1 [4-hydroxytamoxifen],3.6,6,4.6,3,4.9,3.2,6,8.4,2.3,6,5.1,2.4
Nc1ncnc2c1nc(N)n2[C@@H]1O[C@H](CO)[C@@H](O)[C@H]1O [8-amino-adenosine],17.4,22.7,17.8,24.8,26.2,21.1,19.1,23.4,19.8,27.9,23.3,20.1
Nc1ncnc2c1nc(Cl)n2[C@@H]1O[C@H](CO)[C@@H](O)[C@H]1O [8-chloro-adenosine],7.45,5.9,13.8,10.4,18.4,6.9,6,12.9,9.4,20.2,5.75,12.1
COc1ccc(S(=O)(=O)Nc2cccnc2Nc2ccc(O)cc2)cc1 [ABT-751],8.8,9.6,6.8,5.1,7,5.4,9.7,10.2,6.3,11.8,7.95,3.6
CC(C)[C@H](C(=O)Nc1ccc(C(=O)NO)cc1)c1ccccc1 [AR-42],9.25,5.8,9.8,10.5,12.4,9,10,9.1,8.5,10.9,12.8,6.6
Cc1sc2c(c1C)C(c1ccc(Cl)cc1)=N[C@@H](CC(=O)Nc1ccc(OCCOCCOCCOCCNc3cccc4c3C(=O)N(C3CCC(=O)NC3=O)C4=O)cc1)c1nnc(C)n1-2 (stereo partly specified) [ARV-825],0.6,8.2,8.7,6.7,9.7,9.1,3.2,10.2,8.1,8.9,8.3,10.5
COc1cc(N2CCC(N3CCN(C)CC3)CC2)ccc1Nc1ncnc(Nc2ccccc2S(=O)(=O)C(C)C)n1 [ASP3026],3.85,8.1,3.4,5.3,5.3,4.5,5.5,5.7,5.1,7.7,4.5,3.2
O=C(NC1CCNCC1)c1n[nH]cc1NC(=O)c1c(Cl)cccc1Cl [AT7519],14.1,16.3,18.2,20.5,17.2,14.5,13.6,14,14,20.5,15,7.7
O=C(Nc1c[nH]nc1-c1nc2ccc(CN3CCOCC3)cc2[nH]1)NC1CC1 [AT9283],2.9,8.2,< 0,3.1,6.9,3.1,4.4,7.3,4.8,6.1,5.7,3.2
CCN(CC)CCCC(C)Nc1ccnc2cc(Cl)ccc12 (stereo unspecified) [Chloroquine],7.6,9.1,7.7,5.8,8.6,5.8,8.8,8.4,7.8,9,–,–
Nc1ccn([C@@H]2O[C@H](CO)[C@@H](O)[C@@H]2O)c(=O)n1 [Cytarabine],< 0,3.6,5.7,6,4.1,< 0,2.1,13.4,7.2,10.5,–,–
Cc1ccc(C(=O)Nc2ccc(CN3CCN(C)CC3)c(C(F)(F)F)c2)cc1C#Cc1cnc2cccnn12 [Ponatinib],–,–,–,–,10.2,8.3,–,4.7,6.9,–,7.8,8
CC[C@]1(O)C[C@H]2CN(CCc3c([nH]c4ccccc34)[C@@](C(=O)OC)(c3cc4c(cc3OC)N(C=O)[C@H]3[C@@](O)(C(=O)OC)[C@H](OC(C)=O)[C@]5(CC)C=CCN6CC[C@]43[C@@H]65)C2)C1 [Vincristine],14.9,8.9,5,0.5,3.4,9.1,13.8,–,–,6.4,4.75,2.7
